{
  "source": "patent US10219794B2",
  "about": "“Method of treating pleural abnormality” (National Taiwan University, priority 2014, dated 2019)",
  "system": "TC-1 cell line (mouse lung cancer cell line)",
  "format": "cell-based",
  "details": "TC-1 cells, released from PCL membrane",
  "experimental": "In one embodiment, the drug release rates of different kinds of the biodegradable polymeric membrane were tested. There were 6 experimental groups and 1 control group. Control group: TCPS (Tissue Culture Polystyrene); experimental group 1: the non-porous PCL membrane without any drugs; experimental group 2: the non-porous PCL membrane with 1 μg/ml of Cisplatin (0.3 μg/well); experimental group 3: the non-porous PCL membrane with 10 μg/ml of Cisplatin (3 μg/well); experimental group 4: the porous PCL membrane without any drugs; experimental group 5: the porous PCL membrane with 1 μg/ml of Cisplatin (0.3 μg/well); and experimental group 6: the porous PCL membrane with 10 μg/ml of Cisplatin (3 μg/well). The pores of the above porous PCL membrane were created by 0.01 g/mL of NaCl.\nIn this embodiment, different kinds of membranes with drugs were cultured in TC-1 cell line (mouse lung cancer cell line) for three days, and the cell growth and cytotoxicity were measured by using AlamarBlue™. The absorbance was at 570 nm and 600 nm as the background.",
  "data": [
    {"smiles": "N.N.[Cl][Pt][Cl]", "note": "[cisplatin]", "values": [
      {"measurement": "killing cancer cells", "value": "capability of killing cancer cells"}
    ]}
  ]
}
